In patent publication US7527021B2, “Non-invasive drug self-administration system for animals” (University of Virginia Patent Foundation, priority 2003, dated 2009):

How the values were obtained:
[1] = 20/mg/kg cocaine via IP injection; cited from earlier work
[2] = Cocaine levels in the brains of self-administering animals (ELISA); conditions: self-administered aerosol
Experimental: Animals were allowed access to the self administration system of the present invention and the number of nosepokes was recorded using two different concentrations of cocaine (1.8 or 21 mg/kg/spray). Animals were sacrificed within 20 min (animals 3,4) or 1 hr (animals 1,2) of last nosepoke, and all nosepokes occurred within less than 1 hr.

mice = test: Intranasal aerosol cocaine self-administration, nose-poke frequency (FIG. 4); conditions: intra-nasal aerosol; inverted-U dose response, less self-administration at higher and lower concentrations; 4 h sessions

In the case of COC(=O)[C@H]1[C@@H](OC(=O)c2ccccc2)C[C@@H]2CC[C@H]1N2C [cocaine], the “cocaine in the brain” value [1] is given as 0.96 mg/kg, the “Cocaine conc in brain” value ([2]; animal 1, 6 pokes × 1.8 mg/kg/spray, sacrificed within 1 hr of last nosepoke) is given as 0.08 (mg/kg) and the “Cocaine conc in brain” value ([2]; animal 2, 4 pokes × 1.8 mg/kg/spray, sacrificed within 1 hr of last nosepoke) is given as 0.28 mg/kg. The “Cocaine conc in brain” value ([2]; animal 3, 1 poke × 21.0 mg/kg/spray, sacrificed within 20 min of last nosepoke) was 1.03 mg/kg, the “Cocaine conc in brain” value ([2]; animal 4, 2 pokes × 21.0 mg/kg/spray, sacrificed within 20 min of last nosepoke) was 2.96 mg/kg and the “cocaine concentration at which animals nose-poke most frequently” value (mice) was roughly 0.9 mg/kg/infusion.
